Earlier results as cited in patent US20180360817A1, “EXTENDED RELEASE OSMOTIC DOSAGE FORM COMPRISING HIGH METHYLPHENIDATE HYDROCHLORIDE LOAD” (CADILA HEALTHCARE LIMITED, priority 2015, published 2018).
Read-outs that look alike come from different tables or passages of the source.

In the case of COC(=O)C(c1ccccc1)C1CCCCN1.Cl (racemic) [Methylphenidate hydrochloride, d,l (racemic) methyl α-phenyl-2-piperidineacetate hydrochloride], the Solubility (in acetone) is given as “slightly soluble”, the Solubility (in alcohol) is given as “soluble” and the Solubility (in chloroform) is given as “slightly soluble”. For the same molecule, the Solubility (in methanol) was “freely soluble” and the Solubility (in water) was “freely soluble”.
